What was measured:
Assay type in all cases: in vivo, Glycine max
catalase (CAT) = test: Catalase activity staining after PAGE; details: soybean leaves
Protocol: (§1) Treatments of chitin hexamer and thuricin 17 were applied when the seedling reached the first trifoliate stage (˜2 weeks old). Chitin hexamer and thuricin 17 treatments were applied through cut stems, as described by Orozco-Cardenas and Ryan (1999). The plants were excised at the base of the stem with a sharp scalpel and promptly placed in 2 mL Eppendorff™ tubes containing 0.5 mL of 100 μmol L^−1 chitin hexamer [(GlcNAc)6], 0.5 mL of […] thuricin 17, and chitin hexamer+thuricin 17 mixed (1:1) solution in phosphate buffer (15 mM sodium phosphate, pH 6.5). The control plants were treated with phosphate buffer solution alone. Once all the solution was taken up by the plants (4-6 h), they were immediately transferred to glass test tubes containing 20 mL distilled water. The plants were kept under constant white light (85 μmol·m^−2·s^−1). Leaves were collected at 12, 24, 36, 48, 60 and 72 h after elicitor treatment, weighed, placed in plastic bags and stored immediately at −80° C.
For the catalase activity (CAT) staining after 12.5% PAGE, the gel was incubated with 3.2 mM H2O2 for 20 min, and a treatment with a solution containing 1% FeCl3 and 1% K3Fe(CN)6 for 10 min, as described by Racchi et al (2001).

[1] = tested on: superoxide dismutase (SOD); test: SOD activity in soybean leaves
Protocol: (§2) Soybean (Glycine max L. Merr. cv. OAC Bayfield) seeds were surface sterilized in 10% bleach, rinsed several times with distilled water and then germinated and grown in Vermiculite™ (Holiday, Montreal) in a growth chamber under a 16 h/8 h (day/night) regime (natural light supplemented with high pressure sodium lamps to reach the appropriate daylight), at 25±1° C., until they reached vegetative cotyledon (VC) stage (Fehr and Caviness, 1977).
(§3) Treatments of chitin hexamer and thuricin 17 were applied when the seedling reached the first trifoliate stage (˜2 weeks old). Chitin hexamer and thuricin 17 treatments were applied through cut stems, as described by Orozco-Cardenas and Ryan (1999). The plants were excised at the base of the stem with a sharp scalpel and promptly placed in 2 mL Eppendorff™ tubes containing 0.5 mL of 100 μmol L^−1 chitin hexamer [(GlcNAc)6], 0.5 mL of […] thuricin 17, and chitin hexamer+thuricin 17 mixed (1:1) solution in phosphate buffer (15 mM sodium phosphate, pH 6.5). The control plants were treated with phosphate buffer solution alone. […]
The activity of superoxide dismutase (SOD) was determined by measuring its ability to inhibit the photoreduction of nitroblue tetrazolium (NBT) following the method of Giannopolitis and Ries (1977). […] Absorbance was recorded at 560 nm. […]

[2] = tested on: phenylalanine ammonia lyase (PAL); test: PAL activity in soybean leaves after treatment
Protocol: as §2
as §1, with “Leaves were collected at 12, 24, 36, 48, 60 and 72 h after elicitor treatment, weighed, placed in plastic bags and stored immediately at −80° C.” left out
(§4) Leaf samples (300 mg fresh weight) were extracted in 4 mL of buffer (50 mM Tris pH 8.5, 14.4 mmol L^−1 2-mercaptoethanol, 1% w/v insoluble polyvinyl-polypyrrorolidone) and centrifuged at 6,000 g for 10 min at 4° C. The total protein concentration in soluble enzyme extracts was determined using the Bradford (1976) assay.
(§5) The method of Beaudoin-Eagan and Thorpe (1985) was used to estimate phenylalanine ammonia lyase (PAL) and tyrosine ammonia lyase (TAL) activities. […] The amounts of trans-cinnamic and p-coumaric acids formed were determined by measuring absorbance at 290 and 330 nm, respectively, against an identical mixture in which D-phenylalanine was substituted for L-phenylalanine and D-tyrosine for L-tyrosine. […]

peroxidase (POD) = test: POD activity in soybean leaves; details: 72 h after treatment
Protocol: as §2
as §3, with “6.5).” for “6.5). The control plants were treated with phosphate buffer solution alone.”
The activity of peroxidase (POD) was assessed using the method of Chance and Maehly (1955). […] The reaction was started with addition of 20 μL of 40 mM H2O2 and the change in the absorbance at 470 nm was recorded for 1 min. The activity of peroxidase was calculated using an extinction coefficient for the tetraguaiacol of 26.6 mM^−1 cm^−1 at 470 nm. […]

[3] = tested on: tyrosine ammonia lyase (TAL); test: TAL activity in soybean leaves after treatment
Protocol: as §2
as §1, with “Leaves were collected at 12, 24, 36, 48, 60 and 72 h after elicitor treatment, weighed, placed in plastic bags and stored immediately at −80° C.” left out
as §4, §5

total phenolic compounds = test: Total phenolics in soybean leaves (Folin-Ciocalteu)
Protocol: as §2, §3
Total phenolic content was determined by the Folin-Ciocalteu method (Singleton and Rossi, 1965). […] After 3 min, 0.475 mL of 1 mol L^−1 Na2CO3 was added and after 1 h absorbance was measured. […] The total phenolic content was expressed as gallic acid equivalents (GAE) in mg g^−1 fresh weight (FW).

With `CC(=O)N[C@H]1[C@H](O[C@H]2[C@H](O)[C@@H](NC(C)=O)[C@H](O[C@H]3[C@H](O)[C@@H](NC(C)=O)C(O)O[C@@H]3CO)O[C@@H]2CO)O[C@H](CO)[C@@H](O[C@@H]2O[C@H](CO)[C@@H](O[C@@H]3O[C@H](CO)[C@@H](O[C@@H]4O[C@H](CO)[C@@H](O)[C@H](O)[C@H]4NC(C)=O)[C@H](O)[C@H]3NC(C)=O)[C@H](O)[C@H]2NC(C)=O)[C@@H]1O` (stereo partly drawn) [chitin hexamer, chitin hexamer [(GlcNAc)6]] the “induction of CAT activity” value (catalase (CAT)) was “elicited increases”, the “induction of SOD activity” value [1] was “not induced” and the “SOD activity increase compared with control” value ([1]; 48 h after treatment) was 24.9%. For the same compound, the “PAL activity time course” value ([2]; 12 to 72 h after treatment) was “increased continuously”, the “PAL activity increase compared with control” value ([2]; 60 h after treatment) was 8.4% and the “PAL activity greater than the control” value ([2]; 72 h after treatment) was 18.1%. The “POD activity increase compared with control” value (peroxidase (POD)) was 40.3%, the “TAL activity time course” value ([3]; 12 to 72 h after treatment) was “increased continuously” and the “TAL activity increase compared with the control” value ([3]; 48 h after treatment) was 18.8%. For the same compound, the “TAL activity increase compared with the control” value ([3]; 72 h after treatment) was 23.8%, the “total phenolics increase compared with the control” value (total phenolic compounds; 36 h after treatment) was 15.3% and the “total phenolics increase compared with the control” value (total phenolic compounds; 72 h after treatment) was 1.4%.

— US20080248953A1, “Use of Bacteriocins For Promoting Plant Growth and Disease Resistance” (MCGILL UNIVERSITY, priority 2005, published 2008)
